The values that follow come from article PMC11763264, “Antibacterial and Antifungal Activities of Linear and Cyclic Peptides Containing Arginine, Tryptophan, and Diphenylalanine” (Antibiotics, 2025).

One series deals with E. coli (ATCC 25922). Briefly: microbe, parasite or virus in culture. In kind it is cell-based, Escherichia coli. As to conditions: ATCC 25922, 24 h. Put shortly: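 Overnight LB cultures were adjusted to 0.5 McFarland in saline and diluted 1/150 in Mueller Hinton broth. Peptides were serially diluted 2-fold across the plate (256 µg/mL top […] concentration), inoculated, and incubated 24 h at 37 °C. MIC was read as the lowest concentration showing no visible growth.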

A further series relates to C. albicans (ATCC 60193). Briefly: microbe, parasite or virus in culture. In kind it is cell-based, Candida albicans. As to conditions: ATCC 60193, 24 h.
In series [1] the test system is C. parapsilosis (ATCC 22019). Briefly: microbe, parasite or virus in culture. In kind it is cell-based, Candida parapsilosis. As to conditions: ATCC 22019, 24 h.
The subject of series [2] is Gram-negative strains: K. pneumoniae, P. aeruginosa, and E. coli. Briefly: MIC, micro-broth dilution, span over Gram-negative strains. Format: cell-based. How it is done: The antibacterial activity of all ten synthesized linear and cyclic peptides was evaluated against MRSA (ATCC BAA-1556), S. aureus (ATCC 29213), E. faecium (ATCC 700221), S. pneumoniae (ATCC 51938), E. faecalis (ATCC 29212), B. subtilis (ATCC-6633), K. pneumoniae (ATCC BAA-1705), P. aeruginosa (ATCC 27883), and E. coli (ATCC 25922). Meropenem and daptomycin were used as positive controls for this study. Certain peptides are marked as “NT” (not tested) against specific bacterial strains based on initial screening data. […] The MIC was determined by micro-broth dilution protocol, where the minimal concentrations were determined to be in wells with no visible bacterial growth.
All bacterial experiments were carried out in a laminar flow hood (Labconco, Kansas City, MO, USA). The bacterial strains were cultured following the guidelines set by the Clinical Laboratory Standards Institute (CLSI). Antibacterial assays were performed using a standard microtiter dilution method as described in previous studies. The minimum inhibitory concentration (MIC) refers to the lowest peptide concentration that inhibits bacterial growth in wells with no visible bacterial growth. MIC was determined by micro-broth dilution. Bacteria were cultured overnight in 6 mL of Luria Broth (LB). […]

Series [3] concerns C. parapsilosis and A. fumigatus. Format: cell-based. As to conditions: span over the two fungi. As for the experimental part:
The antifungal activity of all ten synthesized linear and cyclic peptides was evaluated against C. albicans (ATCC 60193), C. parapsilosis (ATCC 22019), and A. fumigatus (AF-293). Fluconazole and amphotericin B were used as positive controls for this study. The MIC was determined at concentrations in wells with no visible fungal growth.
A. fumigatus (Af-293) was cultured on Sabouraud dextrose agar (SDA) (Lot #3431660, Oxoid) for 48–72 h at 35 °C to obtain fresh and mature colonies which reached the proper sporulation then used to prepare the inoculum. The colonies were covered with Phosphate-Buffered Saline (PBS) containing 0.025% Tween-20, scraped from the plate, and carefully collected into a sterile tube. The suspension was centrifuged at 3000 RPM for 5 min after the separation between conidia and hyphae. […]
Peptide concentrations of 50, 25, 12.5, 6.25, and 3.1 μg/mL were tested in triplicate. […] Fungal growth was visualized, and the minimum inhibitory concentration (MIC) was determined as the lowest peptide concentration, where no growth was observed. […]
Peptide concentrations of 50, 25, 12.5, 6.25, and 3.1 μg/mL were tested in triplicate and repeated twice. […] Fungal and microbial growth were visually observed in the control wells, and the minimum inhibitory concentration (MIC) was determined as the lowest concentration at which no growth was detected in the wells. […]

The conditions of series [4]: cited from earlier work. The text has this: We hypothesized that these peptides can be used as a broad-spectrum antibiotic and antifungal agents by interacting with bacterial and fungal membranes. The head-to-tail cyclization and incorporation of unnatural amino acids could provide improved stability against degradation in the biological environment. […] For example, we have previously shown the plasma stability of [DipR]5. Approximately 15% degradation of [DipR]5 was observed within the first hour, but the rate of de ...

Values after ≈ are worked out from the molar mass of the structure shown. Values joined by “and” are separate entries in the source; they are usually repeats but may differ in a detail not shown here. Identical values can stand only once. Non-standard residues stand in square brackets, D forms with d. Residues, ends and D or L forms follow the SMILES beside them. Dip = N[C@H](C(=O)O)C(c1ccccc1)c1ccccc1

For the compound `N=C(N)NCCC[C@@H]1NC(=O)[C@H](C(c2ccccc2)c2ccccc2)NC(=O)[C@H](CCCNC(=N)N)NC(=O)[C@H](C(c2ccccc2)c2ccccc2)NC(=O)[C@H](CCCNC(=N)N)NC(=O)[C@H](C(c2ccccc2)c2ccccc2)NC(=O)[C@H](CCCNC(=N)N)NC(=O)[C@H](C(c2ccccc2)c2ccccc2)NC(=O)[C@H](CCCNC(=N)N)NC(=O)[C@H](C(c2ccccc2)c2ccccc2)NC1=O` [[DipR]5] (cyclo([Dip]R[Dip]R[Dip]R[Dip]R[Dip]R)), the MIC stood at 12.5 µM (≈ 23.7 µg/mL) against E. coli (ATCC 25922), 13.1 µM (≈ 24.9 µg/mL) with C. albicans (ATCC 60193) and 6.6 µM (≈ 12.5 µg/mL) in series [1]. For the same compound, in series [2], the “MIC values against Gram-negative strains” value is 12.5–25 µM and 23.8–47.6 µg/mL. Besides, in series [3], the “MIC values against C. parapsilosis and A. fumigatus” value was 1.6–6.6 µM and 3.0–12.5 µg/mL. The degradation in plasma result in series [4] was “Approximately 15%”.
